Data on one molecule can be found in paper PMC7748285, “A small molecule that mitigates bacterial infection disrupts Gram-negative cell membranes and is inhibited by cholesterol and neutral lipids” (PLoS Pathogens, 2020).

The assay deals with T1, AcrB (Escherichia coli, UniProt P31224).
T1 construct: 4·His tag at the C-terminus
The assay is described as follows: isothermal titration calorimetry (ITC) with purified AcrB, […]°C. Type of assay: binding.

T1 sequence (P31224 whole entry): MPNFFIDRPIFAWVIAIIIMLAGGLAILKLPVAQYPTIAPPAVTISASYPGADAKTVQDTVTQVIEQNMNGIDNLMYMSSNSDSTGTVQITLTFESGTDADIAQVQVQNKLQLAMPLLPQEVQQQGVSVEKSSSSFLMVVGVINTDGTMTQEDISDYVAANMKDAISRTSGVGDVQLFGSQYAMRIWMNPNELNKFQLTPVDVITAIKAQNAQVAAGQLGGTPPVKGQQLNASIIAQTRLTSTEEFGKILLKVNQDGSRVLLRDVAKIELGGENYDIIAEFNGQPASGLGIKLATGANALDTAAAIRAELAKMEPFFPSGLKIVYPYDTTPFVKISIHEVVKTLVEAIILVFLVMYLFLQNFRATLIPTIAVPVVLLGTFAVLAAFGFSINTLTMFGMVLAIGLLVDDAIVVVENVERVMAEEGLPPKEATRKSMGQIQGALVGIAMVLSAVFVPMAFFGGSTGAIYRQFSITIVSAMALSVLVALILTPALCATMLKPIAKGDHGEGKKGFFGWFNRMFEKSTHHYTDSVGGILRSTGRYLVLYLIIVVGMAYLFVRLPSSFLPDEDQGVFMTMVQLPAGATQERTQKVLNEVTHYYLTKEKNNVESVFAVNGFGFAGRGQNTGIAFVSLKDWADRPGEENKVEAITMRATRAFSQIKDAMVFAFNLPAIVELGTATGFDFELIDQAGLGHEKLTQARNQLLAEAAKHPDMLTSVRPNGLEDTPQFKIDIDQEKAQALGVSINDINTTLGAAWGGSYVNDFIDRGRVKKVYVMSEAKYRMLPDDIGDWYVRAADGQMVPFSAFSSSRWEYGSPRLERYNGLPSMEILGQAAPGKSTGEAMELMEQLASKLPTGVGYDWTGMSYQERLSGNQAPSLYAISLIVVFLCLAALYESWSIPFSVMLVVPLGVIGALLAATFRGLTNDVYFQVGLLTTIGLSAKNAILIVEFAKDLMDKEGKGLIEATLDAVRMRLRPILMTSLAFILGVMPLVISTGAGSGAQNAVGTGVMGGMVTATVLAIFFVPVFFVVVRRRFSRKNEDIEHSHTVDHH

Usually Kd stands for a measure of binding affinity in units of concentration. Low readings indicate tighter binding, high ones weaker binding. Consider `OC(COc1ccc(C23CC4CC(CC(C4)C2)C3)cc1)CN1CCCCC1` (stereo not shown) [JD1], for which binding was characterised by a dissociation constant (Kd) of 520 nM.
